According to ChEMBL document CHEMBL4393698, “Exploring the effect of chirality on the therapeutic potential of N-alkyl-deoxyiminosugars: anti-inflammatory response to Pseudomonas aeruginosa infections for application in CF lung disease” (Eur J Med Chem, 2019):
Active and inactive are the calls of the source. No cut-off for these calls is given here.

How the values were obtained:
CuFi-1 [1] = experiment: Anti-inflammatory activity in human CuFi1 cells assessed as reduction in Pseudomonas aeruginosa PAO1-induced IL-8 mRNA expression level at 0.1 uM pretreated for 1 hr followed by Pseudomonas aeruginosa PAO1 challenge and measured after 4 hrs by RT-PCR analysis relative to control; type: functional; design: scale not given: the % may be the effect or the level left
CuFi-1 [2] = experiment: Induction of apoptosis in human CuFi1 cells incubated for 48 hrs by Muse Annexin V based cell counter assay; details: cufi-1, 48 h
CuFi-1 [3] = experiment: Cytotoxicity against human CuFi1 cells assessed as reduction in cell viability incubated for 48 hrs by Muse cell analyser method; type: cell-based; details: cufi-1, 48 h
Beta-glucosidase = target: T1, Beta-glucosidase (Homo sapiens, UniProt Q9HCG7)
T1 sequence (Q9HCG7 whole entry): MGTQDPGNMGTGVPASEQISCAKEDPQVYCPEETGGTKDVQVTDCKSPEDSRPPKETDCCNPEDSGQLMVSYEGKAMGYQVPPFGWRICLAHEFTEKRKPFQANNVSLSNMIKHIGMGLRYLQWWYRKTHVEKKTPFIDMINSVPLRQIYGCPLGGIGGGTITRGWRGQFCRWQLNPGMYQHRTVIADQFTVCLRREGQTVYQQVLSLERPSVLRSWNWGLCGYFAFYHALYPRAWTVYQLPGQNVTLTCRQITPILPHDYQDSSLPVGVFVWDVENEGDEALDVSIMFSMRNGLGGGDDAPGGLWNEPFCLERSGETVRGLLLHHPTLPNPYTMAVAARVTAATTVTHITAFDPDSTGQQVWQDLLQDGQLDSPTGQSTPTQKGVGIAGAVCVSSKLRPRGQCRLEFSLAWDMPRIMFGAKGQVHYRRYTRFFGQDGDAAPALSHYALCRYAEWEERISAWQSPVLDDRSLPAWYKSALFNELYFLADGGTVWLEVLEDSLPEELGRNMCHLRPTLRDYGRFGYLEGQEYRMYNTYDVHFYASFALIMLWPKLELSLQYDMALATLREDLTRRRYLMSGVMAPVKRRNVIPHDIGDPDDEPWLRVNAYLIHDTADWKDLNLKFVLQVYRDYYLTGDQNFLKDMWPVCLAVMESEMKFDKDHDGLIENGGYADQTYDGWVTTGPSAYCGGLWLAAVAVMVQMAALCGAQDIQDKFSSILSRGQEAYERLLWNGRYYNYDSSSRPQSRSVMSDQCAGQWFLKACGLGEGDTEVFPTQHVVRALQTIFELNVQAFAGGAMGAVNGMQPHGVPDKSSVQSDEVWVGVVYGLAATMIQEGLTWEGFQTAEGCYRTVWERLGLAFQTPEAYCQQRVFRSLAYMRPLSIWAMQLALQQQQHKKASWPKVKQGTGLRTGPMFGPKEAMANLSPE

[4] = target: T2, Lysosomal acid glucosylceramidase (Homo sapiens) (UniProt P04062); details: SH-SY5Y, 1 nM
T2 sequence (whole entry): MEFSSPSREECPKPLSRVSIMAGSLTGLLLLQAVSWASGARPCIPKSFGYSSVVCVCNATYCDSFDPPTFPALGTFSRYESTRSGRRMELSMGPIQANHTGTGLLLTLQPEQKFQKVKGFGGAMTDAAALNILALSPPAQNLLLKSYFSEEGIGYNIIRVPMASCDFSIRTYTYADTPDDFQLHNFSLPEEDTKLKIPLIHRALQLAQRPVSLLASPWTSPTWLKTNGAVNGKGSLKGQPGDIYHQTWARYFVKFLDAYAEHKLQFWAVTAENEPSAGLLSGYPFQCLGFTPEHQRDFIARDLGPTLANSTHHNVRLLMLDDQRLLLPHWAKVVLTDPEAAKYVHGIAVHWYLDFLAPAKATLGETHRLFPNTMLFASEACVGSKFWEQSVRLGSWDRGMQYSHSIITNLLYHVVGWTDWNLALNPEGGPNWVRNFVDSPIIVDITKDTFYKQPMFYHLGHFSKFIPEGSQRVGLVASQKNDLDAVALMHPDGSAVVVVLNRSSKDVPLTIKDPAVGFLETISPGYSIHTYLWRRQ

[5] = target: T3, Beta-glucosidase (Homo sapiens) (UniProt Q9HCG7); details: SH-SY5Y, 1 nM
T3 sequence (whole entry): T1 sequence (Q9HCG7 whole entry)

CuFi-1 [6] = experiment: Anti-inflammatory activity in human CuFi1 cells assessed as reduction in Pseudomonas aeruginosa PAO1-induced IL-8 mRNA expression level pretreated for 1 hr followed by Pseudomonas aeruginosa PAO1 challenge and measured after 4 hrs by RT-PCR analysis; type: functional, cell-based
CuFi-1 [7] = experiment: Anti-inflammatory activity in human CuFi1 cells assessed as reduction in Pseudomonas aeruginosa PAO1-induced IL-8 mRNA expression level pretreated for 1 hr followed by Pseudomonas aeruginosa PAO1 challenge and measured after 4 hrs by RT-PCR analysis relative to control; type: functional
Homo sapiens = species on record: Homo sapiens; experiment: Anti-inflammatory activity in human Bronchial epithelial cells assessed as reduction in Pseudomonas aeruginosa PAO1-induced IL-8 mRNA expression level at 10 nM pretreated for 1 hr followed by Pseudomonas aeruginosa PAO1 challenge and measured after 4 hrs by RT-PCR analysis relative to control; type: functional
Pseudomonas aeruginosa [8] = experiment: Anti-inflammatory activity in Pseudomonas aeruginosa PAO1 infected C57Bl/6NCr mouse assessed as reduction in amount of neutrophils recruited in BAL at 10 mg/kg, po administered via gavage pretreated for 1 to 24 hrs followed by Pseudomonas aeruginosa PAO1 challenge and measured after 6 hrs; type: functional, organism-based
Pseudomonas aeruginosa [9] = experiment: Anti-inflammatory activity in Pseudomonas aeruginosa PAO1 infected C57Bl/6NCr mouse assessed as reduction in amount of bacteria recovered in airway at 10 mg/kg, po administered via gavage pretreated for 1 to 24 hrs followed by Pseudomonas aeruginosa PAO1 challenge and measured after 6 hrs; type: functional, organism-based
Pseudomonas aeruginosa [10] = experiment: Anti-inflammatory activity in Pseudomonas aeruginosa PAO1 infected C57Bl/6NCr mouse assessed as reduction in bacteria detected in lungs dosed orally via gavage pretreated for 1 to 24 hrs followed by Pseudomonas aeruginosa PAO1 challenge and measured after 6 hrs; type: functional, organism-based
[11] = Toxicity in Pseudomonas aeruginosa PAO1 infected C57Bl/6NCr mouse assessed as change in body weight at 10 to 100 mg/kg, po administered via gavage pretreated for 1 to 24 hrs followed by Pseudomonas aeruginosa PAO1 challenge and measured after 6 hrs; type: organism-based; details: in vivo
Pseudomonas aeruginosa [12] = experiment: Anti-inflammatory activity in Pseudomonas aeruginosa PAO1 infected C57Bl/6NCr mouse assessed as reduction in amount of neutrophils in lungs at 100 mg/kg, po administered via gavage pretreated for 1 to 24 hrs followed by Pseudomonas aeruginosa PAO1 challenge and measured after 6 hrs; type: functional, organism-based
Pseudomonas aeruginosa [13] = experiment: Anti-inflammatory activity in Pseudomonas aeruginosa PAO1 infected C57Bl/6NCr mouse assessed as increase in alveolar macrophages in lungs at 10 mg/kg, po administered via gavage pretreated for 1 to 24 hrs followed by Pseudomonas aeruginosa PAO1 challenge and measured after 6 hrs; type: functional, organism-based
Pseudomonas aeruginosa [14] = experiment: Anti-inflammatory activity in Pseudomonas aeruginosa PAO1 infected C57Bl/6NCr mouse assessed as reduction in bacterial CFU in BAL at 10 mg/kg, po administered via gavage pretreated for 1 to 24 hrs followed by Pseudomonas aeruginosa PAO1 challenge and measured after 6 hrs; type: functional, organism-based
Pseudomonas aeruginosa [15] = experiment: Anti-inflammatory activity in Pseudomonas aeruginosa PAO1 infected C57Bl/6NCr mouse assessed as reduction in bacterial CFU in lungs at 10 mg/kg, po administered via gavage pretreated for 1 to 24 hrs followed by Pseudomonas aeruginosa PAO1 challenge and measured after 6 hrs; type: functional, organism-based
[16] = Toxicity in Pseudomonas aeruginosa PAO1 infected C57Bl/6NCr mouse assessed as change in body weight at 100 mg/kg, po administered via gavage pretreated for 1 to 24 hrs followed by Pseudomonas aeruginosa PAO1 challenge and measured after 6 hrs; type: organism-based; details: in vivo

| IC50 (CuFi-1 [6]) [nM] | SMILES | Activity (CuFi-1 [1]) | Activity (CuFi-1 [2]) | Activity (CuFi-1 [3]) | Imax (CuFi-1 [7]) [%] | also measured |
| --- | --- | --- | --- | --- | --- | --- |
| – | CCCCCCCCCN1C[C@@H](O)[C@H](O)[C@@H](O)[C@@H]1CO | 16% | Non-Toxic | Non-Toxic | – | – |
| – | CCCCCCOCCCCCN1C[C@H](O)[C@@H](O)[C@H](O)[C@H]1CO | – | – | – | – | IC50 (Beta-glucosidase): 0.4 nM; Imax [4]: 100%; Imax [5]: 100% |
| 1.84 | OCC1C(O)C(O)C(O)CN1CCCCCOCC12CC3CC(CC(C3)C1)C2 (racemic) | 42% | Non-Toxic | Non-Toxic | 29 | Activity (Homo sapiens): Active |
| 1.84 | OC[C@@H]1[C@@H](O)[C@H](O)[C@@H](O)CN1CCCCCOCC12CC3CC(CC(C3)C1)C2 | – | Non-Toxic | Non-Toxic | – | – |
| – | OC[C@H]1[C@H](O)[C@@H](O)[C@H](O)CN1CCCCCOCC12CC3CC(CC(C3)C1)C2 | 29% | Non-Toxic | Non-Toxic | – | – |
| – | CCCCN1C[C@@H](O)[C@H](O)[C@@H](O)[C@@H]1CO | <=20% | Non-Toxic | Non-Toxic | – | Activity (Pseudomonas aeruginosa [8]): Active; Activity (Pseudomonas aeruginosa [9]): Active; Activity (Pseudomonas aeruginosa [10]): inactive; Activity [11]: Non-Toxic |
| – | CCCCCCOCCCCCN1CC(O)C(O)C(O)C1CO (racemic) | – | – | – | – | IC50 (Beta-glucosidase): 1 nM; Imax [5]: 100% |
| 2000 | CCCCN1C[C@H](O)[C@@H](O)[C@H](O)[C@H]1CO | – | Non-Toxic | Non-Toxic | 50 | Activity [11]: Non-Toxic |
| 0.95 | CCCCN1CC(O)C(O)C(O)C1CO (racemic) | 30% | Non-Toxic | Non-Toxic | 36 | Activity (Homo sapiens): Active; Activity (Pseudomonas aeruginosa [12]): inactive; Activity (Pseudomonas aeruginosa [13]): Active; Activity (Pseudomonas aeruginosa [14]): Active; Activity (Pseudomonas aeruginosa [15]): Active; Activity [16]: Non-Toxic |
| – | CCCCCCOCCCCCN1C[C@@H](O)[C@H](O)[C@@H](O)[C@@H]1CO | – | – | – | – | IC50 (Beta-glucosidase): 36700 nM; Imax [4]: 65%; Imax [5]: 100% |
| – | CCCCCCCCCN1C[C@H](O)[C@@H](O)[C@H](O)[C@H]1CO | 8% | Non-Toxic | Non-Toxic | – | – |
| 0.6 | CCCCCCCCCN1CC(O)C(O)C(O)C1CO (racemic) | 22% | Non-Toxic | Non-Toxic | 12 | – |
